Source: patent publication US9309231B2, “Bridged ring compounds as hepatitis C virus (HCV) inhibitors and pharmaceutical applications thereof” (SUNSHINE LAKE PHARMA CO., LTD, priority 2012, dated 2016)

Experiments:
[1] = tested on: HCV GT1a replicon cells; assay: HCV replicon assay, GT1a replicon cells; assay type: cell-based; details: Hepatitis C virus, 72 hours incubation, luciferase reporter or NEO gene qPCR readout, read-out: EC50 against HCV 1a genotype
Protocol: (§1) An HCV Replicon assay was utilized in the present disclosure, and was prepared, developed and validated as described in Science, 1999, 285 (5424), 110-3 and J. Virol., 2003, 77 (5), 3007-19.
(§2) HCV GT1a, GT1b and GT2a replicon cells were used to test the currently described compound series as well as wild-type cells HCV 1b and resistant cells Y^93H, L31F, P32L and I302V. GT1a and CT1b are HCV Replicon System which is transfected HCV 1a, 1b genotype respectively.
(§3) 1. Testing EC50 of the Compounds by Luciferase Assay
(§4) The GT1b cells and GT1a cells were seeded into 96-well plates (8,000 cells in 125 μl/well) respectively; each compound was diluted to desired concentration using 5-fold serial dilutions protocol, 10 dose in duplicate, and added to wells with POD™ 810 Plate Assembler. The final concentration of DMSO was 0.5%; the plates were incubated in a CO2 incubator for 72 hours; after that, 40 μl of Luciferase assay substrate (Promega Bright-Glo) was added to each well, and detected by a chemiluminescence detection system (Topcount Microplate Scintillation and Luminescence Counter) 5 minutes later; data analysis.
(§5) 2. Testing EC50 of the Compounds by Detecting Antibiotic G418 Resistance Gene NEO Gene
(§6) The GT1b cells and GT1a cells were seeded into 96-well plates (8,000 cells in 125 μl/well) respectively; each compound was diluted to desired concentration using 5-fold serial dilutions protocol, 10 dose in duplicate, and added to wells with POD™ 810 Plate Assembler., the final concentration of DMSO was 0.5%; the cells were incubated in a CO2 incubator for 72 hours; quantitative PCR. • Sample preparation: the supernatant was removed, 100 μl of FCW buffer solution was added to each well, washed carefully and discarded the solution; 50 μl of lysate FCP was added to each well, the cells was lysed as PCR template and diluted with DEPC water. • Quantitative PCR: preparation of reaction mixture according to PCR system; the reaction mixture was dispensed into a 384-well PCR reaction plate (specially for quantitative); and a standard template which was diluted in proportion was distributed into the plate; and the sample template was distributed into the plate; then the 384-well plate was sealed with closure plate membrane; the […] PCR machine was operated by procedures; data analysis.
(§7) 3. Data Processing: The EC50 Values of Compounds were Analyzed by GraphPad Prism Software.

[2] = tested on: HCV GT1b replicon cells; assay: HCV replicon assay, GT1b replicon cells; assay type: cell-based; details: Hepatitis C virus, 72 hours incubation, luciferase reporter or NEO gene qPCR readout, read-out: EC50 against HCV 1b genotype
Protocol: as §1, §2, §3, §4, §5, §6, §7

SMILES	EC50 [1] [pM]	EC50 [2] [pM]
COC(=O)N[C@H](C(=O)N1CCC[C@H]1c1ncc(-c2ccc(-c3ccc(-c4cnc([C@@H]5CCCN5C(=O)[C@@H](NC(=O)OC)C(C)C)[nH]4)c4c3C3CCC4C3)c3c2CCC3)[nH]1)C(C)C (stereo partly drawn) [Example 67]	953	53
COC(=O)N[C@H](C(=O)N1CCC[C@H]1c1ncc(-c2ccc(-c3ccc(-c4ccc5nc([C@@H]6CCCN6C(=O)[C@@H](NC(=O)OC)C(C)C)[nH]c5c4)c4c3C3CCC4N3C)nc2)[nH]1)C(C)C (stereo partly drawn) [Example 34]	54	6
COC(=O)N[C@H](C(=O)N1CCC[C@H]1c1nc2ccc(-c3ccc(-c4ccc(-c5cnc([C@@H]6CC7CC7N6C(=O)[C@@H](NC(=O)OC)C(C)C)[nH]5)cc4)c4c3C3CCC4C3)cc2[nH]1)C(C)C (stereo partly drawn) [Example 3]	53	13
COC(=O)N[C@H](C(=O)N1CCC[C@H]1c1ncc(-c2ccc(-c3ccc(-c4ccc5nc([C@@H]6CCCN6C(=O)[C@@H](NC(=O)OC)C(C)C)[nH]c5c4)c4c3C3CCC4CC3)cc2)[nH]1)C(C)C [Example 21]	93	13
COC(=O)N[C@H](C(=O)N1CCC[C@H]1c1ncc(-c2ccc(-c3nnc(-c4ccc5[nH]c([C@@H]6CCCN6C(=O)[C@@H](NC(=O)OC)C(C)C)nc5c4)c4c3C3CCC4C3)cc2)[nH]1)C(C)C (stereo partly drawn) [Example 12]	658	373
CC[C@H](C)[C@H](NC(=O)OC)C(=O)N1CCC[C@H]1c1nc2ccc(-c3ccc(-c4ccc(-c5cnc([C@@H]6CCCN6C(=O)[C@@H](NC(=O)OC)C(C)C)[nH]5)cc4)c4c3C3CCC4N3C)cc2[nH]1 (stereo partly drawn) [Example 28]	63	15
COC(=O)N[C@H](C(=O)N1CCC[C@H]1c1nc2ccc(-c3ccc(-c4ccc5nc([C@@H]6CCCN6C(=O)[C@@H](NC(=O)OC)C(C)C)[nH]c5c4)c4c3C3CCC4N3C)cc2[nH]1)C(C)C [Example 25]	83	32
COC(=O)N[C@H](C(=O)N1C[C@H](C)C[C@H]1c1ncc(-c2ccc(-c3ccc(-c4cnc([C@@H]5C[C@@H](C)CN5C(=O)[C@@H](NC(=O)OC)C(C)C)[nH]4)c4c3C3CCC4CC3)cc2)[nH]1)C(C)C [Example 59]	37	8
COC(=O)N[C@H](C(=O)N1CC(F)(F)C[C@H]1c1ncc(-c2ccc(-c3ccc(-c4cnc([C@@H]5CC(F)(F)CN5C(=O)[C@@H](NC(=O)OC)C(C)C)[nH]4)c4c3C3CCC4C3)cc2)[nH]1)C(C)C (stereo partly drawn) [Example 14]	487	6
COC(=O)N[C@H](C(=O)N1CCC[C@H]1c1ncc(-c2ccc(-c3ccc(-c4cnc([C@@H]5CCCN5C(=O)[C@@H](NC(=O)OC)C(C)C)[nH]4)c4c3C3CCC4N3C)cc2)[nH]1)C(C)C (stereo partly drawn) [Example 26]	653	77
COC(=O)N[C@H](C(=O)N1CCC[C@H]1c1ncc(-c2ccc(-c3ccc(-c4ccc(-c5cnc([C@@H]6CCCN6C(=O)[C@@H](NC(=O)OC)C(C)C)[nH]5)cc4)c4c3C3CCC4C3)cc2)[nH]1)C(C)C [Example 5]	1050	98
COC(=O)N[C@H](C(=O)N1CCC[C@H]1c1ncc(-c2ccc(-c3ccc(-c4cnc([C@@H]5CCCN5C(=O)[C@@H](NC(=O)OC)C(C)C)[nH]4)c4c3C3CCC4C3)c(F)c2)[nH]1)C(C)C (stereo partly drawn) [Example 4]	497	7
COC(=O)N[C@H](C(=O)N1CCC[C@H]1c1ncc(-c2ccc(-c3ccc(-c4ccc5nc([C@@H]6CCCN6C(=O)[C@@H](NC(=O)OC)C(C)C)[nH]c5c4)c4c3C3CCC4C3)cc2)[nH]1)C(C)C (stereo partly drawn) [Example 17]	767	7
COC(=O)N[C@H](C(=O)N1CCCC1c1ncc(-c2ccc(-c3ccc(-c4cnc([C@@H]5CC6(CN5C(=O)[C@@H](NC(=O)OC)C(C)C)OCCO6)[nH]4)cc3)c3c2C2CCC3CC2)[nH]1)C(C)C (stereo partly drawn) [Example 61]	88	11
COC(=O)N[C@H](C(=O)N1CCC[C@H]1c1ncc(-c2ccc(-c3ccc(-c4ccc5nc([C@@H]6CCCN6C(=O)[C@@H](NC(=O)OC)C(C)C)[nH]c5c4)c4c3C3CCC4C3)nc2)[nH]1)C(C)C (stereo partly drawn) [Example 41]	67	10
